Patent US20220023257A1, “TREATMENT OF DEMENTIA-ASSOCIATED TAUOPATHIES” (Medizinische Hochschule Hannover (MHH), priority 2018, published 2022)

Legend:
[1] = system: WT mice injected with AAV-eGFP-Tau[R406W]; experiment: Tau hyperphosphorylation and recency test in WT mice after AAV-eGFP-Tau[R406W] injection into the prefrontal cortex; assay type: in vivo; settings: intraperitoneal, once daily for 16 days
Description: A. Scheme showing experimental design: AAV-eGFP-Tau[R406W] was injected stereotactically into the prefrontal cortex (PFC) of WT mice. After 3 weeks of recovery time, animals were intraperitoneally injected with either Vehicle or Amisulpride once daily for 16 days. B. Staining of prefrontal cortical slices of mice after AAV injection and treatment with phospho-specific Tau antibody T205. Representative overview image and magnification are shown. C. Quantification of the mean intensities of eGFP-Tau and pTau over the whole slice and calculation of the pTau/Tau ratio. Data are shown as mean+SEM (N=5). * indicates statistical significance of p<0.05 (one-tailed unpaired t-test). D. Results of test for temporal order recognition memory (recency test). Quantification of exploration time spent with less recent (L) and recent (R) object and discrimination index. Data are presented as mean+SEM (9≥N≥7). * indicates statistical significance of p<0.05, ** p<0.01; n.s., not statistically different (paired t-test and Wilcoxon signed rank test were applied to analyze exploration time, one-way ANOVA was applied to analyze the discrimination ratio).

[2] = system: eGFP-Tau[R406W]-infected primary cortical neurons; experiment: Tau tangle formation and apoptosis in eGFP-Tau[R406W]-infected primary cortical neurons; assay type: cell-based, mice; settings: 50 μM Amisulpride for three days, DIV 10-13
Description: White boxes and its corresponding magnifications show representative neurons with and without tau tangles. Arrow heads indicate cells that were counted as tangle-positive. B. Quantification of tau tangles. The number of tangle-positive neurons was counted in a confined area in 6 independent experiments and is represented as a fraction of total number of infected neurons. * indicates statistical significance of p<0.05; ** p<0.01 (N=6; total analyzed cells […], one-way ANOVA, followed by Dunnett's post hoc test). C. […] D. Representative images of DIV14 primary cortical WT neurons infected at DIV10 either with AAV constructs encoding eGFP (white) or eGFP-Tau[R406W] (green). […] Fluorescence from cleaved substrate of active caspase3/7 indicating apoptosis is shown. E. Quantification of apoptosis. Apoptotic cells showing caspase3/7 activity were counted in a confined area in 6 independent experiments and are represented as a fraction of total number of infected neurons.
A. Scheme showing experimental design. […] Neurons were analyzed at DIV 13. […] Arrowheads indicate cells that were counted as tangle-positive. […] Quantification of Tau tangles. The number of tangle-positive neurons was counted in a confined area in at least four independent experiments and is represented as a fraction of the total number of infected neurons. […] GAPDH expression was detected in a soluble fraction. […]

[3] = target: T1, 5-HT7R (Homo sapiens, UniProt P34969); experiment: 5-HT7R-induced Tau aggregation in HEK293 Tau-BiFC cells; assay type: cell-based; settings: HEK293 Tau-BiFC cells transfected with CFP-5-HT7R; maximum intensity projections
T1 construct: HA (N); expressed in transfected cells; host or cells: N1E-115 (neuroblastoma cells)
T1 sequence (P34969 whole entry): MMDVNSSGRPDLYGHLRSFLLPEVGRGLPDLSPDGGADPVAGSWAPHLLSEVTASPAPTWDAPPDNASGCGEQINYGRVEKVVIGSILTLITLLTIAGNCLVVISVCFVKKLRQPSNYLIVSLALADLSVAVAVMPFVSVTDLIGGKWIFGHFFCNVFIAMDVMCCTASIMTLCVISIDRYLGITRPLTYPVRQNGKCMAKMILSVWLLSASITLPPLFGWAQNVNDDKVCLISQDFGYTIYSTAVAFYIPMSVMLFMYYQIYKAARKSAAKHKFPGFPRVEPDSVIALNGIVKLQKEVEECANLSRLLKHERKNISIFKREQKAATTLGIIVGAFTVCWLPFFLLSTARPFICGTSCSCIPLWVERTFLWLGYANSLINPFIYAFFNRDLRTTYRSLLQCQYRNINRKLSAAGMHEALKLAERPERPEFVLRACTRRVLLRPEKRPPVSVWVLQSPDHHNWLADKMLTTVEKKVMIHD
Description: Signals are normalized to DMSO-treated pcDNA-transfected cells. Data are represented as means+SDs (N=3). *** indicates statistical significance of p<0.001, n.s. not statistically different (one-way ANOVA, followed by Turkey's post hoc test). […] Representative maximum intensity projections of HEK293 Tau-BiFC cells transfected with control vector (mCerulean, blue) or 5-HT7R (CFP-5-HT7R, blue) upon the indicated treatment. […] Membranes were probed with total Tau (Abcam) and GAPDH antibody (Millipore). Signals are normalized to DMSO-treated pcDNA-transfected cells. Data are represented as means+SDs (N=3). ** indicates statistical significance of p<0.01, *** p<0.001, n.s. not statistically different (one-way ANOVA, followed by Turkey's post hoc test). […] HEK293 Tau-BiFC cells were transfected with (HA)5-HT7R and treated with the indicated concentration of Amisulpride.

CCN1CCCC1CNC(=O)c1cc(S(=O)(=O)CC)c(N)cc1OC (centres unmarked) [Amisulpride]
Tau[R406W]-induced memory impairments (recency test) [1]: ameliorates
Tau[R406W]-induced Tau hyperphosphorylation (pTau/Tau ratio, T205 staining) ([1]; prefrontal cortical slices): ameliorates
5-HT7R-induced Tau tangle formation [2]: reduced
apoptosis (caspase3/7 activity) [2]: reduced
Tangles of Venus-Tau (VN-Tau) in 5-HT7R-transfected cells [3]: disappeared
